According to ChEMBL document CHEMBL5584236, “Development of novel bisphenol derivatives with a membrane-targeting mechanism as potent gram-positive antibacterial agents” (Eur J Med Chem, 2024):

Legend:
Staphylococcus aureus [1] = assay: Antibacterial activity against methicillin-resistant Staphylococcus aureus N315 assessed as reduction in microbial growth incubated for 22 to 24 hrs by CLSI based broth microdilution method; format: functional; settings: time 22-24 hrs
Escherichia coli = assay: Antibacterial activity against Escherichia coli ATCC25922 assessed as reduction in microbial growth incubated for 22 to 24 hrs by CLSI based broth microdilution method; format: functional; settings: time 22-24 hrs
Staphylococcus aureus [2] = assay: Antibacterial activity against methicillin-resistant Staphylococcus aureus NCTC10442 assessed as reduction in microbial growth incubated for 22 to 24 hrs by CLSI based broth microdilution method; format: functional; settings: time 22-24 hrs
Staphylococcus aureus [3] = assay: Antibacterial activity against Staphylococcus aureus ATCC29213 assessed as reduction in microbial growth incubated for 22 to 24 hrs by CLSI based broth microdilution method; format: functional; settings: time 22-24 hrs
[4] = Hemolytic activity against rabbit RBC incubated for 1 hr by multimode plate reader; format: toxicity, cell-based, Oryctolagus cuniculus, Erythrocyte; settings: rabbit red blood cells (erythrocytes)
Acinetobacter baumannii [5] = assay: Antibacterial activity against Acinetobacter baumannii ATCC17978 assessed as reduction in microbial growth incubated for 22 to 24 hrs by CLSI based broth microdilution method; format: functional; settings: time 22-24 hrs
Acinetobacter baumannii [6] = assay: Antibacterial activity against Acinetobacter baumannii R28889 assessed as reduction in microbial growth incubated for 22 to 24 hrs by CLSI based broth microdilution method; format: functional; settings: time 22-24 hrs
Klebsiella pneumoniae = assay: Antibacterial activity against Klebsiella pneumoniae ATCC10031 assessed as reduction in microbial growth incubated for 22 to 24 hrs by CLSI based broth microdilution method; format: functional; settings: time 22-24 hrs

| SMILES | MIC (Staphylococcus aureus [1]) [µg/mL] | MIC (Escherichia coli) [µg/mL] | MIC (Staphylococcus aureus [2]) [µg/mL] | MIC (Staphylococcus aureus [3]) [µg/mL] | HC50 at 1 h [4] [µg/mL] | MIC (Acinetobacter baumannii [5]) [µg/mL] | MIC (Acinetobacter baumannii [6]) [µg/mL] | MIC (Klebsiella pneumoniae) [µg/mL] |
| --- | --- | --- | --- | --- | --- | --- | --- | --- |
| C=CCOc1ccc(S(=O)(=O)c2ccc(OCC(=O)N[C@@H](CCCNC(=N)N)C(=O)OC)cc2)cc1 | > 50 | > 50 | > 50 | > 50 | > 200 |  |  |  |
| COC(=O)[C@H](CCCNC(=N)N)NC(=O)COc1ccc(S(=O)(=O)c2ccc(OC(C)C)cc2)cc1 | > 50 | > 50 | > 50 | > 50 | > 200 |  |  |  |
| O=S(=O)(c1ccc(O)cc1)c1ccc(O)cc1 | > 50 | > 100 | > 50 | > 50 | > 200 |  |  |  |
| CC(C)=CCOc1ccc(S(=O)(=O)c2ccc(OCCCCN)cc2)cc1 | 6.25 | > 50 | 6.25 | 25 | > 200 |  |  |  |
| CCOC(=O)COc1ccc(S(=O)(=O)c2ccc(OCC=C(C)C)cc2)cc1 | > 50 | > 50 | > 50 | > 50 | > 200 |  |  |  |
| COC(=O)[C@H](CCCNC(=N)N)NC(=O)[C@H](CCCNC(=N)N)NC(=O)COc1ccc(S(=O)(=O)c2ccc(OCC=C(C)C)cc2)cc1 | 6.25 | > 50 | 6.25 | 25 | > 200 |  |  |  |
| COC(=O)[C@H](CCCNC(=N)N)NC(=O)COc1ccc(S(=O)(=O)c2ccc(OC/C=C(/C)CCC=C(C)C)cc2)cc1 | 50 | > 50 | 50 | > 50 | > 200 |  |  |  |
| COC(=O)[C@H](CCCNC(=N)N)NC(=O)[C@H](CCCNC(=N)N)NC(=O)[C@H](CCCNC(=N)N)NC(=O)COc1ccc(S(=O)(=O)c2ccc(OC(C)C)cc2)cc1 | > 50 | > 50 | > 50 | > 50 | > 200 |  |  |  |
| CC[C@H](C)[C@H](NC(=O)CN)C(=O)NCC(=O)N[C@@H](C)C(=O)N[C@H](C(=O)N[C@@H](CC(C)C)C(=O)N[C@@H](CCCCN)C(=O)N[C@H](C(=O)N[C@@H](CC(C)C)C(=O)N[C@H](C(=O)N[C@H](C(=O)NCC(=O)N[C@@H](CC(C)C)C(=O)N1CCC[C@H]1C(=O)N[C@@H](C)C(=O)N[C@@H](CC(C)C)C(=O)N[C@H](C(=O)N[C@@H](CO)C(=O)N[C@@H](Cc1c[nH]c2ccccc12)C(=O)N[C@H](C(=O)N[C@@H](CCCCN)C(=O)N[C@@H](CCCNC(=N)N)C(=O)N[C@@H](CCCCN)C(=O)N[C@@H](CCCNC(=N)N)C(=O)N[C@@H](CCC(N)=O)C(=O)N[C@@H](CCC(N)=O)C(N)=O)[C@@H](C)CC)[C@@H](C)CC)[C@@H](C)O)[C@@H](C)O)C(C)C)C(C)C [MELITTIN] |  |  |  |  |  | 3.12 | 3.12 | 6.25 |
| CCN(CC)CCCCOc1ccc(S(=O)(=O)c2ccc(OCC=C(C)C)cc2)cc1 | 25 | > 50 | 25 | 50 | 69.4 |  |  |  |
| C=CCOc1ccc(S(=O)(=O)c2ccc(OCCCCNC(=N)N)cc2)cc1 | 6.25 | 50 | 6.25 | 6.25 | > 200 |  |  |  |
| COC(=O)[C@H](CCCNC(=N)N)NC(=O)[C@H](CCCNC(=N)N)NC(=O)[C@H](CCCNC(=N)N)NC(=O)COc1ccc(S(=O)(=O)c2ccc(OCC=C(C)C)cc2)cc1 | 6.25 | > 50 | 6.25 | 12.5 | > 200 |  |  |  |
| CC(C)=CCOc1ccc(S(=O)(=O)c2ccc(OCCCCN(C)C)cc2)cc1 | 12.5 | 50 | 12.5 | 25 | 67.8 |  |  |  |
